Measured values as given in the OPERA property sets (Mansouri et al. 2018).

Settings: for log10 biotransformation half-life (days) / log10 BCF: fish

## CC(C)=CCCC(C)=CC(=O)O
  boiling point: 250 °C

## CCC(C)(NC(=O)c1cc(Cl)c(C)c(Cl)c1)C(=O)CCl (stereo not given)
  log10 biotransformation half-life (days): 0.16

## Cc1cc2c(cc1C)C(=O)c1ccccc1C2=O
  melting point: 211 °C

## O=C1/C(=C/c2ccc(O)c(O)c2)Oc2cc(O)ccc21
  melting point: 303 °C

## O=C1CCCN1
  boiling point: 245 °C
  log10 vapour pressure (mmHg): -2.02
  melting point: 23 °C

## CC(=O)c1ccc(-c2ccccc2)cc1
  boiling point: 326 °C
  log10 Koc (L/kg): 3.22
  melting point: 121 °C

## Cc1cc(-c2ccccc2)nnc1NCCN1CCOCC1
  melting point: 122 °C

## c1ccc(C2(c3ccccc3)CC2C2=NCCN2)cc1 (stereo not given)
  melting point: 104 °C

## CC(C)COCC(C)C
  boiling point: 123 °C
  log10 Koa: 3.4
  log10 vapour pressure (mmHg): 1.19

## CCN(CC)c1nc(Cl)nc(NC(C)C)n1
  log10 Koc (L/kg): 2.91

## CCCCOC(=O)C(C)O (stereo not given)
  boiling point: 186 °C
  log10 vapour pressure (mmHg): -0.398
  melting point: -28 °C

## CC1(C)N=C(N)N=C(N)N1c1ccc(Cl)cc1
  melting point: 146 °C

## ClCCCCCCCCCCl
  boiling point: 260 °C

## C1=C\CC/C=C\CC/1
  ready biodegradability: not readily biodegradable

## O=C(O)c1c[nH]c2ccccc12
  melting point: 206 °C

## c1ccc(Nc2ccc(-c3ccc(Nc4ccccc4)cc3)cc2)cc1
  melting point: 247 °C

## Oc1ccc(N=Nc2ccccc2)c(O)c1
  melting point: 170 °C

## Clc1cccc(Cl)c1
  boiling point: 173 °C
  log10 Henry constant (atm·m³/mol): -2.58
  log10 Koa: 4.12
  log10 Koc (L/kg): 2.58
  log10 vapour pressure (mmHg): 0.332
  melting point: -24.8 °C
  ready biodegradability: not readily biodegradable
  log10 BCF: 2.33
  log10 biotransformation half-life (days): -0.21

## CC/C(=C\c1ccccc1)[N+](=O)[O-]
  boiling point: 308 °C
  melting point: 90.5 °C

## Cc1c(C2(c3cc(Br)c(O)c(Br)c3C)OS(=O)(=O)c3ccccc32)cc(Br)c(O)c1Br
  melting point: 218 °C

## CNC(=O)N(C)C
  boiling point: 232 °C
  melting point: 75.5 °C

## CCCCCCCCCCC
  boiling point: 196 °C
  log10 biodegradation half-life (days): 0.845
  log10 vapour pressure (mmHg): -0.385
  melting point: -25.6 °C
  ready biodegradability: readily biodegradable

## CCCCC=CC(=O)O
  boiling point: 226 °C
  melting point: -19 °C

## O=[N+]([O-])c1ccc2[nH]ccc2c1
  melting point: 141 °C

## c1ccc(-c2cc3ccccc3[nH]2)cc1
  melting point: 190 °C
  ready biodegradability: not readily biodegradable

## CC1(C)C2CCC1(C)C(O)C2 (stereo not given)
  ready biodegradability: readily biodegradable

## CCC(C)(C)OC
  boiling point: 86.3 °C
  log10 Henry constant (atm·m³/mol): -2.88
  log10 vapour pressure (mmHg): 1.88

## Cc1cccc(Oc2cccc(C)c2)c1
  boiling point: 284 °C

## COc1ccc2ncccc2c1
  boiling point: 306 °C
  melting point: 26.5 °C

## CCOC(=O)CCCCCCCCC(=O)OCC
  boiling point: 305 °C
  log10 vapour pressure (mmHg): -3.29
  melting point: 5 °C

## COC(=O)c1cccnc1
  boiling point: 204 °C
  melting point: 42.5 °C

## CC(C=O)Cc1ccc(C(C)(C)C)cc1 (stereo not given)
  ready biodegradability: not readily biodegradable

## CC(C)[C@H](C)CC[C@@H](C)[C@H]1CC[C@H]2[C@@H]3CC=C4C[C@@H](O)CC[C@]4(C)[C@H]3CC[C@]12C
  melting point: 158 °C

## O=C1c2ccccc2C(=O)c2c1ccc(O)c2O
  boiling point: 430 °C
  log10 vapour pressure (mmHg): -9.06
  melting point: 290 °C

## CCCCCCCCCBr
  log10 vapour pressure (mmHg): -0.921

## Clc1c(Cl)c(Cl)c2c(Cl)c(Cl)c(Cl)c(Cl)c2c1Cl
  log10 Koa: 11.1
  log10 Koc (L/kg): 5.89
  log10 vapour pressure (mmHg): -7.96
  melting point: 198 °C
  log10 BCF: 2.58
  log10 biotransformation half-life (days): 1.62

## CCCCCC1CCCC1
  boiling point: 180 °C
  melting point: -83 °C

## COc1cc([C@@H]2c3cc4c(cc3[C@H](O)[C@H]3COC(=O)[C@@H]23)OCO4)cc(OC)c1OC
  melting point: 206 °C

## CCOc1ccccc1C(N)=O
  melting point: 133 °C

## CCCCCCCCCCCCO
  boiling point: 259 °C
  log10 Henry constant (atm·m³/mol): -4.65
  log10 Koc (L/kg): 3.52
  log10 vapour pressure (mmHg): -3.07
  melting point: 24 °C
  ready biodegradability: readily biodegradable

## Clc1ccc(-c2ccc(Cl)c(Cl)c2)cc1
  log10 Henry constant (atm·m³/mol): -4

## O=S(O)c1ccc(Cl)cc1
  melting point: 99 °C

## NC(=O)c1cccs1
  melting point: 182 °C

## CCCCCCCCCCCCCCCCC(=O)OC
  melting point: 30 °C

## Cc1ccc([N+](=O)[O-])cc1S(=O)(=O)O
  ready biodegradability: not readily biodegradable

## CC(C)CB(CC(C)C)CC(C)C
  boiling point: 188 °C
  melting point: -88 °C

## N#Cc1cccc(Cl)c1
  melting point: 41 °C

## OCC(O)COc1ccc(Cl)cc1 (stereo not given)
  melting point: 78 °C

## CC=CC=C(C)C
  boiling point: 112 °C
  melting point: -74.2 °C

## FC1C(F)(F)C(F)(F)C(F)(F)C(F)(F)C1(F)F
  boiling point: 62 °C

## O=C(O)c1ccc(O)c(Cl)c1
  melting point: 171 °C
  ready biodegradability: not readily biodegradable

## CCC(Br)C(=O)Cl (stereo not given)
  boiling point: 151 °C

## O=[N+]([O-])c1cccc(S(=O)(=O)NCCNS(=O)(=O)c2cccc([N+](=O)[O-])c2)c1
  melting point: 190 °C

## N#Cc1cccnc1
  boiling point: 207 °C
  log10 Henry constant (atm·m³/mol): -6.56
  log10 Koc (L/kg): 1.56
  log10 vapour pressure (mmHg): -0.529
  melting point: 51 °C
  ready biodegradability: not readily biodegradable

## Clc1nc2ccccc2o1
  boiling point: 202 °C

## OC(O)C(Br)(Br)Br
  melting point: 53.5 °C

## CCOC(=O)OCC
  boiling point: 126 °C
  log10 vapour pressure (mmHg): 1.03
  melting point: -43 °C

## Cc1cc(C)c(C)cc1C
  boiling point: 197 °C
  log10 Koc (L/kg): 3.12
  log10 biodegradation half-life (days): 0.845
  log10 vapour pressure (mmHg): -0.277
  melting point: 79.3 °C

## FC(F)(F)C(F)(F)C(F)(F)C(F)(F)OC(F)(F)C(F)(F)C(F)(F)C(F)(F)F
  boiling point: 102 °C
  melting point: -100 °C

## CCCCOc1ccc(C(=O)OCCN(CC)CC)cc1
  melting point: 146 °C

## CCCC(=O)Oc1ccccc1
  boiling point: 225 °C

## O=C(Nc1ccc(Br)cc1)c1cc(Br)cc(Br)c1O
  melting point: 227 °C
